In patent publication US20120142676A1, “Oxathiazine and dithiine oxides as inhibitors of sulfhydryl-dependent biomolecules” (priority 2010, published 2012):
Read-outs that look alike come from different tables or passages of the source.

Experiments:
human topoisomerase IIα = molecular target: T1, human topoisomerase IIα (Homo sapiens, UniProt P11388); assay: Topoisomerase IIα decatenation inhibition assay; assay type: biochemical; conditions: K562 cells nuclear extract, kDNA decatenation; for inhibition at 3 µM / inhibition at 30 µM: read-out: % Inhibition of topoisomerase II catalytic activity
T1 construct: 300 ng K562 cells nuclear extract, the amount that gave 80% decatenation; endogenous in cells; host or cells: K562 cells nuclear extract
T1 sequence (P11388 whole entry): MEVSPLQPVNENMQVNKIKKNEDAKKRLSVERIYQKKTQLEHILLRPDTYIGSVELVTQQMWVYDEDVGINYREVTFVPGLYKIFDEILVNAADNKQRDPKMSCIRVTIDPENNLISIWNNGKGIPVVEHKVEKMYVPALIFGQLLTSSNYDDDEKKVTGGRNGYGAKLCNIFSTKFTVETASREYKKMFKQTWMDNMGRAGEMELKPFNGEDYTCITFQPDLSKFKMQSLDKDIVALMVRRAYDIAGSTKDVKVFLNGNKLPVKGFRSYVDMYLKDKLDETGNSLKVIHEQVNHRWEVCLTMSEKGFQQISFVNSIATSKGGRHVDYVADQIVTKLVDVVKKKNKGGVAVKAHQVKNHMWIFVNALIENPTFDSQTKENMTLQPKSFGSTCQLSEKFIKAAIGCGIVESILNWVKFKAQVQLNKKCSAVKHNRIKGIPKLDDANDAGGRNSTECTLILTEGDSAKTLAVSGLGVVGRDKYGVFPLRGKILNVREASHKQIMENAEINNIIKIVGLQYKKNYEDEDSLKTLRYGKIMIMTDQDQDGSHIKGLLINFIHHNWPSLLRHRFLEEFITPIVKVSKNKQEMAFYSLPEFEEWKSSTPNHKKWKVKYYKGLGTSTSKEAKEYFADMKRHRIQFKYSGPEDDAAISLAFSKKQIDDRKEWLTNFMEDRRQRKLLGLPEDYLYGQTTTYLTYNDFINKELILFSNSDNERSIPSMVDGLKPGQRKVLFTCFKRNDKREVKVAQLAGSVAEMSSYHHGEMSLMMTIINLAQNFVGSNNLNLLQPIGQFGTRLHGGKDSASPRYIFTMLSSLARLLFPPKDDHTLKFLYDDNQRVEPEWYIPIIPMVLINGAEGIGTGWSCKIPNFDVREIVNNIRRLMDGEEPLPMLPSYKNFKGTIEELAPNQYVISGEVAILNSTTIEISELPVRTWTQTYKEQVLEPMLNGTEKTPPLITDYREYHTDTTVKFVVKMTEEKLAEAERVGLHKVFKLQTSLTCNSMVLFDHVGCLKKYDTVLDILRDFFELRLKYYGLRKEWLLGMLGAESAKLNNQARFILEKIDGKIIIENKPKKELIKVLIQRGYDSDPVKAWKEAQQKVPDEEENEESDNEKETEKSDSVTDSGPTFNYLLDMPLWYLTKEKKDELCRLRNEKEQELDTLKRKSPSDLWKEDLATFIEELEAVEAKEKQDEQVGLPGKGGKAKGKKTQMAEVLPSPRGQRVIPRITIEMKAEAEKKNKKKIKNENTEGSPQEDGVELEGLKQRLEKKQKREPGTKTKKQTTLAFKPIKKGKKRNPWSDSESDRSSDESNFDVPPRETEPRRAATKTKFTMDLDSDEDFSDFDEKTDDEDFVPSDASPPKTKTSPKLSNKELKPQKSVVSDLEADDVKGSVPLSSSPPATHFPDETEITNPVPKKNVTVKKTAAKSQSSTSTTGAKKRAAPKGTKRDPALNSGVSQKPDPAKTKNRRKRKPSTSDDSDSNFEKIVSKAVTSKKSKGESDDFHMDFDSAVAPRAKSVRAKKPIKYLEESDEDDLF
Experimental: The catalytic inhibition of human topoisomerase IIα by a drug was measured by the ATP-dependent decatenation of kDNA (Topogen, Columbus, Ohio) into minicircles of DNA as we previously described (Hasinoff 1995 QSAR ICRF-187). The 20 μl reaction mixture contained 0.5 mM ATP, 50 mM Tris-HCl (pH 8.0), 120 mM KCl, 10 mM MgCl2, 30 μg/ml bovine serum albumin, 40 ng kDNA, drug or DMSO (0.5 μl) and 300 ng K562 cells nuclear extract, the amount that gave 80% decatenation. The enzymatic reaction was carried out at 37° C. and was terminated by the addition of 6 μl of buffer containing 5 mM Tris pH 8.0, 30% w/v sucrose, 0.5% bromophenol blue, and 125 mM EDTA. The resulting mixture was separated by electrophoresis (2 h at 8 V/cm) on an agarose gel prepared from 1.2% w/v agarose and 0.5 μg/ml ethidium bromide in TAE buffer pH 8.0 (40 mM Tris base, 0.114% (v/v) glacial acetic acid, 2 mM EDTA). The DNA in the gel was imaged by its fluorescence on an Alpha Annotech Fluorchem 8900 imaging system equipped with a 365 nm illuminator and a CCD camera. Densitometry scanning of gel photographs was used to obtain the fluorescence intensity of the band corresponding to the DNA minicircles. The percentage inhibition of K562 topoisomerase II catalytic activity at concentrations of 3 and 30 μM was determined using the following equation: % Inhibition=[(1−(Bdrug−Bbackground)/Bdmso]×100, where Bdrug is the band intensity value for the enzymatic reaction sample treated with drug, Bbackground is the band intensity value for sample without the enzyme, and Bdmso is the band intensity value for the enzymatic reaction sample treated with DMSO solvent only.

[1] = tested on: human leukemia K562 cells; assay: K562 cell growth inhibition assay (MTS); assay type: cell-based; conditions: 72 h incubation, read-out: Median growth inhibitory concentration (IC50) of K562 cells
Experimental: K562 cells were obtained from American Type Culture Collection (Rockville, Md.). These cells were maintained as suspension cultures in alpha minimum essential medium (αMEM) (Gibco BRL, Burlington, Canada) containing 2 mM L-glutamine and supplemented with 10% fetal calf serum (Invitrogen, Burlington, ON, Canada), 20 mM NaHCO3, 20 mM HEPES (Sigma), 100 units/ml penicillin G, and 100 μg/ml streptomycin at pH 7.4 in an atmosphere of 5% CO2 and 95% air at 37° C. For the measurement of growth inhibition, cells in exponential growth were harvested and seeded at 6000 cells/well in 96-well plates (100 μl/well). Drugs were dissolved in DMSO and added to the wells such that the final concentration of DMSO was 0.5% (v/v). After 72 h incubation, 7 μl of 3-(4,5-dimethylthiazol-2-yl)-5-(3-carboxymethoxyphenyl)-2-(4-sulfophenyl)-2H-tetrazolium (MTS) Cell Titer 96® AQueous One Solution (Promega, Md., WI) was added to each well and incubated for a further 3 h. The absorbance was measured in a Molecular Devices (Menlo Park, Calif.) plate reader. The spectrophotometric 96-well plate cell growth inhibition assay measures the ability of the cells to enzymatically reduce MTS. Three replicates were measured at each drug concentration, and the IC50 values and their SEs for growth inhibition were obtained by fitting the absorbance-drug concentration data to a four-parameter logistic equation.

Row | melting point | % Inhibition of topoisomerase II catalytic activity (human topoisomerase IIα; 3 μM) | % Inhibition of topoisomerase II catalytic activity (human topoisomerase IIα; 30 μM) | IC50 [1] | inhibition at 3 µM (human topoisomerase IIα; 3 μM) | inhibition at 30 µM (human topoisomerase IIα; 30 μM) | IC50 ([1]; Homo sapiens, K562, 72 h) | Structure (SMILES)
1 | 68 to 70 °C | 70% | 100% | 11000 nM | – | – | – | CCOC(=O)C1=C(C(=O)OCC)S(=O)(=O)CCS1(=O)=O [compound 1]
2 | – | 100% | 100% | 1000 nM | – | – | – | CC1=C(COc2ccccc2)S(=O)(=O)CCS1(=O)=O [compound 2]
3 | 150 to 154 °C | – | – | – | 100% | 100% | 1000 nM | O=C(Nc1ccccc1)C1=NOCC[S+]1[O-] (stereo not shown) [compound 3, 4-oxo-5,6-dihydro-N-phenyl-1,4λ^4,2-oxathiazine-3-carboxamide]
4 | 206 to 207 °C | – | – | – | 100% | 100% | 700 nM | O=C(Nc1ccccc1)C1=NOCCS1(=O)=O [compound 4, 4,4-dioxo-N-phenyl-5,6-dihydro-1, 4λ^6,2-oxathiazine-3-carboxamide]
5 | – | 100% | 100% | 900 nM | – | – | – | CCOC(=O)c1ccc(C2=NOCC[S+]2[O-])s1 (stereo not shown) [compound 7]
6 | 208 to 210 °C | – | – | – | 80% | 100% | 4000 nM | [O-][S+]1CCON=C1c1nnc(-c2cccc(Cl)c2)o1 (stereo not shown) [compound 8, 3-[5-(3-chlorophenyl)-1,3,4-oxadiazol-2-yl]-5,6-dihydro-1,4λ^4,2-oxathiazin-4-one]
7 | – | 100% | 100% | 500 nM | – | – | – | O=S1(=O)CCON=C1c1cc2ccccc2s1 [compound 10]
8 | – | 100% | 100% | 2000 nM | – | – | – | CC1C[S+]([O-])C(c2cc3ccccc3s2)=NO1 (stereo not shown) [compound 11]
9 | – | 100% | 100% | 700 nM | – | – | – | Cc1ccc2sc(C3=NOCC[S+]3[O-])c(C)c2c1 (stereo not shown) [compound 12]
10 | – | – | – | – | 100% | 100% | 1000 nM | [O-][S+]1CCON=C1c1sc2ccccc2c1Br (stereo not shown) [compound 13, 3-(3-bromo-1-benzothiophen-2-yl)-5,6-dihydro-1,4λ^4,2-oxathiazin-4-one]
11 | – | 100% | 100% | 1000 nM | – | – | – | [O-][S+]1CCON=C1c1cc2ccccc2[s+]1[O-] (stereo not shown) [compound 14]
12 | – | 100% | 100% | 500 nM | – | – | – | O=S1(=O)CCON=C1C1=Cc2ccccc2S1(=O)=O [compound 15]
13 | – | 80% | 100% | 4000 nM | – | – | – | CCC1CS(=O)(=O)C(c2ccccc2)=C(c2ccccc2)S1(=O)=O (stereo not shown) [compound 16]
14 | 190 to 191 °C | – | – | – | 100% | 100% | 3000 nM | CCOC(=O)C1=C(c2ccccc2)S(=O)(=O)CCS1(=O)=O [compound 17, ethyl 1,1,4,4-tetraoxo-3-phenyl-5,6-dihydro-1λ^6,4λ^6-dithiine-2carboxylate]
15 | – | 70% | 100% | 5000 nM | – | – | – | CCCCC1=C(c2ccccc2)S(=O)(=O)CCS1(=O)=O [compound 18]
16 | – | 100% | 100% | 4000 nM | – | – | – | CC1C(C)S(=O)(=O)C(c2ccccc2)=CS1(=O)=O (stereo not shown) [compound 19]
17 | 154 to 156 °C | – | – | 1000 nM | – | 100% | – | CCOC(=O)C1=C(C(=O)OCC)S(=O)(=O)CCS1(=O)=O [compound 20, 2,3-diethyl 1,1,4,4-tetraoxo-5,6-dihydro-1λ^6,4λ^6-dithiine-2,3-dicarboxylate]
18 | – | – | – | – | 100% | 100% | 600 nM | CC1=C(COc2ccccc2)S(=O)(=O)CCS1(=O)=O [compound 21, 2-methyl-3-(phenoxymethyl)-5,6-dihydro-1λ^6,4λ^6-dithiine-1,1,4,4-tetrone]
19 | – | 100% | 100% | 1000 nM | – | – | – | CC1=C(CS(=O)(=O)c2ccccc2)S(=O)(=O)CCS1(=O)=O [compound 22]
20 | – | 100% | 100% | 2300 nM | – | – | – | COCC1=C(COC)S(=O)(=O)CCS1(=O)=O [compound 23]
21 | 142 to 145 °C | – | – | – | 100% | 100% | 2500 nM | CCOC(=O)C1=C(C(F)(F)F)S(=O)(=O)CCS1(=O)=O [compound 24, ethyl 1,1,4,4-tetraoxo-3-(trifluoromethyl)-5,6-dihydro-1λ^6,4λ^6-dithiine-2-carboxylate]
22 | 217 to 219 °C | – | – | – | 100% | 100% | 4000 nM | O=C(Nc1ccccc1)C1=C(C(F)(F)F)S(=O)(=O)CCS1(=O)=O [compound 25, 1,1,4,4-tetraoxo-N-phenyl-3-(trifluoromethyl)-5,6-dihydro-1λ^6,4λ^6-dithiine-2-carboxamide]
